In PubChem BioAssay AID1053146 (Broad Institute, 2014):

System: HepG2 BODIPY-LDL uptake, high-content imaging
Assay: LDL uptake enhancers in HepG2, dose response, imaging, BODIPY-LDL, cherry-pick (AID 1053146)

EC50 [nM]	SMILES
4600	CN1C(=O)c2cc(NC(=O)c3ccc(C(F)(F)F)cc3)ccc2OC[C@@H]2O[C@@H](CC(=O)NC3Cc4ccccc4C3)CC[C@@H]21
1100	CN1C(=O)c2cc(NC(=O)c3ccc(C(F)(F)F)cc3)ccc2OC[C@@H]2O[C@H](CC(=O)NC3Cc4ccccc4C3)CC[C@@H]21
